Where “and” joins values, the source holds several entries; their conditions need not be identical. Equal entries are not always repeated.
Key:
[1] = Stability of [14C]DVS in control rat urine; assay type: in vitro ADME; conditions: 37° C.
Method: The stability of [^14C]DVS in rat urine was determined. [^14C]DVS (0.13 mg/mL, final concentration) was added to control rat urine and incubated in a shaking water bath set to 37° C. Aliquots (0.5 mL) were removed at 0, 1, 4, 8 and 24 hours. Samples were extracted as described above and radiopurity assayed by HPLC analysis.

[2] = Whole blood and plasma radioactivity and partitioning after single oral [14C]DVS, rats; assay type: in vivo, Sprague Dawley rats; conditions: single oral 20 mg/kg; for Radioactivity in Plasma, Individual Rats / Radioactivity in Plasma, Mean ± S.D. / Radioactivity in Whole Blood, Individual Rats: listed as [^14C]DVS, 20 mg/kg
Excerpt: Sprague Dawley rats (12 male and 6 female), weighing between 0.311 and 0.345 kg for males and between 0.263 and 0.311 kg for females at the time of dosing, were used. Animals were given food and water ad libitum. For ease of reporting, the animals were designated numbers 001M through 012M for the male rats and 001F through 006F for the female rats. Three animals from the last time point, for each sex, were housed individually in metabolism cages for the collection of urine and feces. The other animals were housed individually in standard cages.
The oral dosing solution was prepared by combining 86.4 mL of 3.0 mg/mL (2.0 mg/mL, free base) unlabeled DVS solution with 3.6 mL of 4.3 mg/mL (3.0 mg/mL free base) [^14C]DVS solution. Solutions were prepared in 0.25% polysorbate 80, 0.5% methylcellulose in water. The radiochemical purity, specific activity and concentration of [^14C]DVS (bulk drug and dosing solution) were determined using HPLC with radiometric detection. Aliquots of the dosing solution were taken pre-, mid-, and post-dose for the determination of specific activity and radioactivity concentrations of dosing solution.
Whole blood (approximately 5 mL) was collected by cardiac puncture into heparinized tubes at the appropriate time points (1, 4, 8, and 24 hours for male rats, and 1 and 8 hours for female rats, N=3 for each sex at each time point). Triplicate aliquots (200 μL) of whole blood were placed into combusto-cones, weighed and allowed to air dry. These samples were oxidized. The remaining blood was centrifuged at 5000×g and 4° C. for 10 minutes (Model Legend RT centrifuge, Sorvall). The resulting plasma was transferred to fresh tubes and triplicate aliquots (100 μL) were analyzed for radioactivity content. The remaining plasma was stored at −70° C. until metabolite analysis.
Blood samples and fecal homogenates were oxidized in a Model 307 Tri-Carb sample oxidizer, using Carbosorb® E (6 mL) as trapping agent and PermaFluor® E^+ (10 mL) as scintillant. Oxidation efficiency was determined by oxidation of C-Spec-Chec (Perkin Elmer), a standard of known radioactivity, and determined to be 98.7%. The background reading (average of control blood or fecal samples) was subtracted from each sample reading. Aliquots of urine and plasma were analyzed directly following the addition of 10 mL of Ultima Gold™ scintillation fluid.
All radioactivity determinations were made using a Tri-Carb Model 3100TR liquid scintillation counter (Perkin Elmer) with an Ultima Gold™ or toluene standard curve. Counts per minute (CPM) were converted to disintegrations per minute (DPM) by use of external standards of known radioactivity. The quench of each standard was determined by the transformed spectral index of an external radioactive standard (tSIE). The lower limits of detection were defined as twice background.

[3] = Stability of [14C]DVS in control dog urine; assay type: in vitro ADME; conditions: 37° C., up to 24 hours
Method: The stability of [^14C]DVS in dog urine was determined. [^14C]DVS (0.025 mg/mL, final concentration) was added to control dog urine and incubated in a shaking water bath set to 37° C. Aliquots (1 mL) were removed at 0, 1, 4, 8 and 24 hours. Samples were extracted as described above and radiopurity assayed by HPLC analysis.

[4] = Stability of [14C]DVS in control rat plasma; assay type: in vitro ADME; conditions: 37° C.
Method: The stability of [^14C]DVS in rat plasma was determined. [^14C]DVS (0.01 mg/mL, final concentration) was added to control rat plasma and incubated in a shaking water bath set to 37° C. Aliquots (0.5 mL) were removed at 0, 1, 4, 8 and 24 hours. Samples were extracted as described above and radiopurity assayed by HPLC analysis.

SMILES: CN(C)CC(c1ccc(O)cc1)C1(O)CCCCC1.O=C(O)CCC(=O)O (centres unmarked) [DVS, O-desmethylvenlafaxine succinate]
- radiopurity of [14C]DVS in rat urine ([1]; all time points up to 24 hours): greater than 99.5%
- Stability of [14C]DVS in control rat urine ([1]; up to 24 hours): stable
- Radioactivity in Whole Blood, Mean ± S.D. ([2]; 1 hr, female): 6.18 ± 0.74 μg equivalents/mL
- Radioactivity in Plasma, Individual Rats ([2]; 1 hr, female): 9.61 μg equivalents/mL and 8.74 μg equivalents/mL and 11.3 μg equivalents/mL
- Radioactivity in Plasma, Mean ± S.D. ([2]; 1 hr, female): 9.90 μg equivalents/mL and 9.90 ± 1.2 μg equivalents/mL
- Radioactivity in Whole Blood, Individual Rats ([2]; 1 hr, female): 5.63 μg equivalents/mL and 5.76 μg equivalents/mL and 7.15 μg equivalents/mL
- Radioactivity in Whole Blood, Mean ± S.D. ([2]; 1 hr, male): 6.87 ± 1.50 μg equivalents/mL
- Radioactivity in Plasma, Individual Rats ([2]; 1 hr, male): 10.4 μg equivalents/mL and 8.90 μg equivalents/mL and 13.7 μg equivalents/mL
- Radioactivity in Plasma, Mean ± S.D. ([2]; 1 hr, male): 11.0 μg equivalents/mL and 11.0 ± 2.2 μg equivalents/mL
- Radioactivity in Whole Blood, Individual Rats ([2]; 1 hr, male): 6.11 μg equivalents/mL and 5.66 μg equivalents/mL and 8.85 μg equivalents/mL
- Radioactivity in Whole Blood, Mean ± S.D. ([2]; 4 hr, male): 0.88 ± 0.12 μg equivalents/mL
- Radioactivity in Plasma, Individual Rats ([2]; 4 hr, male): 1.59 μg equivalents/mL and 1.62 μg equivalents/mL and 1.22 μg equivalents/mL
- Radioactivity in Plasma, Mean ± S.D. ([2]; 4 hr, male): 1.48 μg equivalents/mL and 1.48 ± 0.20 μg equivalents/mL
- Radioactivity in Whole Blood, Individual Rats ([2]; 4 hr, male): 0.95 μg equivalents/mL and 0.96 μg equivalents/mL and 0.72 μg equivalents/mL
- Radioactivity in Whole Blood, Mean ± S.D. ([2]; 8 hr, female): 0.58 ± 0.07 μg equivalents/mL
- Radioactivity in Plasma, Individual Rats ([2]; 8 hr, female): 0.86 μg equivalents/mL and 0.82 μg equivalents/mL and 1.08 μg equivalents/mL
- Radioactivity in Plasma, Mean ± S.D. ([2]; 8 hr, female): 0.92 μg equivalents/mL and 0.92 ± 0.12 μg equivalents/mL
- Radioactivity in Whole Blood, Individual Rats ([2]; 8 hr, female): 0.59 μg equivalents/mL and 0.50 μg equivalents/mL and 0.66 μg equivalents/mL
- Radioactivity in Whole Blood, Mean ± S.D. ([2]; 8 hr, male): 0.59 ± 0.18 μg equivalents/mL
- Radioactivity in Plasma, Individual Rats ([2]; 8 hr, male): 0.53 μg equivalents/mL and 1.10 μg equivalents/mL and 1.05 μg equivalents/mL
- Radioactivity in Plasma, Mean ± S.D. ([2]; 8 hr, male): 0.89 μg equivalents/mL and 0.89 ± 0.27 μg equivalents/mL
- Radioactivity in Whole Blood, Individual Rats ([2]; 8 hr, male): 0.35 μg equivalents/mL and 0.71 μg equivalents/mL (2×)
- Radioactivity in Whole Blood, Mean ± S.D. ([2]; 24 hr, male): 0.07 ± 0.01 μg equivalents/mL
- Radioactivity in Plasma, Individual Rats ([2]; 24 hr, male): 0.07 μg equivalents/mL and 0.08 μg equivalents/mL and 0.05 μg equivalents/mL
- Radioactivity in Plasma, Mean ± S.D. ([2]; 24 hr, male): 0.07 μg equivalents/mL and 0.07 ± 0.01 μg equivalents/mL
- Radioactivity in Whole Blood, Individual Rats ([2]; 24 hr, male): 0.06 μg equivalents/mL and 0.08 μg equivalents/mL and 0.05 μg equivalents/mL
- Stability of [14C]DVS in control dog urine [3]: stable
- radiopurity of [14C]DVS in rat plasma ([4]; all time points up to 24 hours): greater than 98.9%
- Stability of [14C]DVS in control rat plasma ([4]; up to 24 hours): stable

Source: patent publication US20080261895A1 (Wyeth, priority 2006, published 2008)
